The test system of experiment [1] is C. albicans SC5314. Nature of the experiment: Murine in vivo model of disseminated candidiasis: survival and body weight. The note with it: for survival of treated mice compared to saline controls, log-rank P: observed 26 days p.i.; for survival of treated mice compared to saline controls, log-rank P / survival efficacy compared with 5 mg/kg fluconazole: FIG. 9; for survival efficacy: 30 days p.i.; for survival as efficacy metric compared with Cyclic Peptide 5: candidemia model, FIGS. 10 to 15; for survival by end point analysis compared with fluconazole: χ^2 analysis at day 30 p.i.; for survival efficacy compared with 5 mg/kg fluconazole: 0.25 mg/kg Cyclic Peptide 5, 5 mg/kg RTD-1. The protocol:
Mice were infected i.v. at T=0 with 3×10^5 blastospores of C. albicans genetically defined reference strain SC5314.
Mice were infected i.v. at T=0 with 3×10^5 blastospores of C. albicans SC5314. At T=24 h, mice were treated i.p. daily for 7 d w.
In activity studies the synthetic cyclic tetradecapeptide Cyclic Peptide 5 (SEQ ID NO. 6), which was identified initially as having significant antifungal activity, was used as a model peptide. Briefly, 7-8 week old, immunocompetent, female BALB/c mice were challenged i.v. at T=0 with 3×10^5 CFU of C. albicans SC5314. […]
Under these test protocols C. albicans-infected mice treated with saline presented with ruffled fur and significant weight loss, and became moribund within 5-10 days, by which time there was >30% body weight loss.

The subject of experiment [2] is C. albicans SC5314. The experiment can be described thus: Renal fungal burden in kidney homogenates, murine disseminated candidiasis model. In kind it is in vivo. The note with it: FIG. 16; for renal fungal burden compared with fluconazole / renal fungal burden compared with fluconazole, P (Fisher's LSD test): long term survivors 30 days p.i. The text has this: In activity studies the synthetic cyclic tetradecapeptide Cyclic Peptide 5 (SEQ ID NO. 6), which was identified initially as having significant antifungal activity, was used as a model peptide. Briefly, 7-8 week old, immunocompetent, female BALB/c mice were challenged i.v. at T=0 with 3×10^5 CFU of C. albicans SC5314.

In experiment [3] the test system is susceptible and multiple drug resistant strains of C. albicans. The note with it: long term, on treatment with RTD-1; cited from earlier work.
The test system of a further experiment is C. albicans. The note with it: cited from earlier work.
The mark [4] stands for this setting: 5 mg/kg i.p. daily for 7 d from T=24 h.

Bridge positions count the residues as written; N and C are the ends. Ends that are not written are not given here.

With `CC[C@H](C)C[C@H](C)CCCCCCCCC(=O)N[C@H]1C[C@@H](O)[C@@H](NCCN)NC(=O)[C@@H]2[C@@H](O)CCN2C(=O)[C@H]([C@H](O)CCN)NC(=O)[C@H]([C@H](O)[C@@H](O)c2ccc(O)cc2)NC(=O)[C@@H]2C[C@@H](O)CN2C(=O)[C@H]([C@@H](C)O)NC1=O` [Caspofungin, caspofungin, reference compound], in the experiment with C. albicans SC5314 [1] (setting [4]), the “survival of treated mice compared to saline controls, log-rank P” value was 3.4×10^−6.
Turning to `OC(Cn1cncn1)(Cn1cncn1)c1ccc(F)cc1F` [Fluconazole, fluconazole, reference compound], the “survival of treated mice compared to saline controls, log-rank P” value in the experiment with C. albicans SC5314 [1] (setting [4]) is 3.4×10^−6. Moreover, the renal fungal burden entry with C. albicans SC5314 [2] (5 mg/kg, long term survivors 30 days p.i. vs moribund saline controls) is given as “reduced fungal burden”.
On to “Cyclic Peptide 1: synthetic cyclic tetradecapeptide θ-defensin analog; positions 3-14,1,2: C S C R R R F C L C R R G V (GVCSCRRRFCLCRR; cyclic backbone; Cyclic Peptide 1)”, for which the survival efficacy entry in the experiment with C. albicans SC5314 [1] (0.1 mg/kg i.p. daily for 7 d) is “effective”. In the experiment on C. albicans SC5314 [1] (0.25 mg/kg i.p. daily for 7 d), the survival efficacy result is on record as “effective”. Moreover, in the experiment with C. albicans SC5314 [1], the “survival as efficacy metric compared with Cyclic Peptide 5” value is recorded as “equivalent or superior to Cyclic Peptide 5” and the “survival by end point analysis compared with fluconazole” value is listed as “more effective than fluconazole”. Moreover, in the experiment with C. albicans SC5314 [2], the “renal fungal burden compared with fluconazole” value was “reduced fungal burden to a greater extent than fluconazole” and the “renal fungal burden compared with fluconazole, P (Fisher's LSD test)” value is listed as 3.5×10^−5.
With “Cyclic Peptide 2: synthetic cyclic tetradecapeptide θ-defensin analog; positions 3-14,1,2: C S C R R R F C I C R R G V (cyclo(GVCSCRRRFCICRR); disulfide 5-10, 3-12)”, in the experiment on C. albicans SC5314 [1], the “survival as efficacy metric compared with Cyclic Peptide 5” value is given as “equivalent or superior to Cyclic Peptide 5”.
In the case of “Cyclic Peptide 3: synthetic cyclic tetradecapeptide θ-defensin analog; positions 3-14,1,2: C I C R R R V C I C R R G V (GVCICRRRVCICRR; cyclic backbone; Cyclic Peptide 3)”, the survival efficacy entry in the experiment on C. albicans SC5314 [1] (0.1 mg/kg i.p. daily for 7 d) is “effective”. In addition, in the experiment on C. albicans SC5314 [1], the “survival as efficacy metric compared with Cyclic Peptide 5” value is recorded as “equivalent or superior to Cyclic Peptide 5” and the “survival by end point analysis compared with fluconazole” value was “more effective than fluconazole”. Moreover, in the experiment with C. albicans SC5314 [2], the “renal fungal burden compared with fluconazole” value is reported as “reduced fungal burden to a greater extent than fluconazole” and the “renal fungal burden compared with fluconazole, P (Fisher's LSD test)” value is given as 7.4×10^−3.
“Cyclic Peptide 4: synthetic cyclic tetradecapeptide θ-defensin analog; positions 3-14,1,2: C I C R R R A C L C R R G L (GLCICRRRACLCRR; cyclic backbone; Cyclic Peptide 4)”: the survival efficacy entry with C. albicans SC5314 [1] (0.25 mg/kg i.p. daily for 7 d) is recorded as “effective”. Also, in the experiment with C. albicans SC5314 [1], the “survival as efficacy metric compared with Cyclic Peptide 5” value is “equivalent or superior to Cyclic Peptide 5” and the “survival by end point analysis compared with fluconazole” value is recorded as “more effective than fluconazole”. Further, in the experiment with C. albicans SC5314 [2], the “renal fungal burden compared with fluconazole” value is “reduced fungal burden to a greater extent than fluconazole” and the “renal fungal burden compared with fluconazole, P (Fisher's LSD test)” value was determined as 0.02.
Take “Cyclic Peptide 5: model synthetic cyclic tetradecapeptide θ-defensin analog; positions 3-14,1,2: C I C R R R F C L C R R G V (GVCICRRRFCLCRR; cyclic backbone; Cyclic Peptide 5)”: the “survival efficacy compared with 5 mg/kg fluconazole” value with C. albicans SC5314 [1] is recorded as “more effective than 5 mg/kg of fluconazole”. In addition, the “survival efficacy compared with RTD-1” value with C. albicans SC5314 [1] (0.25 mg/kg Cyclic Peptide 5 vs 5 mg/kg RTD-1, i.p. once a day for 7 days, BALB/c mice) is given as “more effective than 5 mg/kg of RTD-1”. Moreover, in the experiment on C. albicans SC5314 [1] (0.25 mg/kg i.p. daily for 7 d from T=24 h), the “survival of treated mice compared to saline controls, log-rank P” value is on record as 2.3×10^−7. In the experiment on C. albicans SC5314 [1] (0.25 mg/kg or 0.1 mg/kg, results similar to treatment with saline), the “survival efficacy (FIG. 10)” value is “relatively ineffective”. In the experiment with C. albicans SC5314 [2], the “renal fungal burden compared with fluconazole” value was “reduced fungal burden to a greater extent than fluconazole” and the “renal fungal burden compared with fluconazole, P (Fisher's LSD test)” value is 3×10^−3.
For the compound “Cyclic Peptide 6: synthetic cyclic tetradecapeptide θ-defensin analog; positions 3-14,1,2: C R C R R G V C R C R R G V (GVCRCRRGVCRCRR; not fully specified (bridges); ends and bridges not checked; also: cyclic (type not given here))”, in the experiment with C. albicans SC5314 [1], the “survival as efficacy metric compared with Cyclic Peptide 5” value is listed as “equivalent or superior to Cyclic Peptide 5” and the “survival by end point analysis compared with fluconazole” value was “more effective than fluconazole”. In addition, in the experiment on C. albicans SC5314 [1] (peptides at 0.25 mg/kg, FIG. 15), the “survival compared with fluconazole and Cyclic Peptide 5” value is “survival that exceeded that of both a prior art antifungal drug (fluconazole) and Circular Peptide 5”.
For the compound “RTD-1: naturally occurring θ-defensin of rhesus monkeys, cyclic octadecapeptide with 3 disulfide bonds (cyclo(GFCRCLCRRGVCRCICTR); disulfide (positions not given here); not fully specified (bridges); also: three disulfide bonds, pairing not given here; listed as Macaca mulatta)”, the “survival efficacy compared with 5 mg/kg fluconazole” value in the experiment with C. albicans SC5314 [1] is on record as “more effective than 5 mg/kg of fluconazole”. In addition, in the experiment with C. albicans SC5314 [1] (setting [4]), the “survival of treated mice compared to saline controls, log-rank P” value is 3.4×10^−6. Further, in experiment [3], the “pro-inflammatory cytokine production in vivo” value was “reduction in long term production of pro-inflammatory cytokines”. Also, the “in vitro antifungal activity in presence of serum” value with C. albicans (presence of serum) is recorded as “abolished by the presence of serum”. Besides, the “in vitro active concentration relative to concentrations effective in vivo” value with C. albicans (vs murine animal model studies) was at least 50 fold.
